Target: ALK2 (Homo sapiens (Human), UniProt Q04771)
Assay: ALK2 inhibition, LanthaScreen Eu Kinase Binding Assay (ThermoFisher Scientific / Life Technologies)
Conditions: read-out: Measured Ki (IC50) Value for Compounds: IC50
Method: Biochemical assays to measure the inhibitory effects of the compounds were performed by ThermoFisher Scientific (Life Technologies). ALK2 inhibition was tested using LanthaScreen™ Eu Kinase Binding Assay screening protocol.

Chain of ALK2 (Q04771 21-509): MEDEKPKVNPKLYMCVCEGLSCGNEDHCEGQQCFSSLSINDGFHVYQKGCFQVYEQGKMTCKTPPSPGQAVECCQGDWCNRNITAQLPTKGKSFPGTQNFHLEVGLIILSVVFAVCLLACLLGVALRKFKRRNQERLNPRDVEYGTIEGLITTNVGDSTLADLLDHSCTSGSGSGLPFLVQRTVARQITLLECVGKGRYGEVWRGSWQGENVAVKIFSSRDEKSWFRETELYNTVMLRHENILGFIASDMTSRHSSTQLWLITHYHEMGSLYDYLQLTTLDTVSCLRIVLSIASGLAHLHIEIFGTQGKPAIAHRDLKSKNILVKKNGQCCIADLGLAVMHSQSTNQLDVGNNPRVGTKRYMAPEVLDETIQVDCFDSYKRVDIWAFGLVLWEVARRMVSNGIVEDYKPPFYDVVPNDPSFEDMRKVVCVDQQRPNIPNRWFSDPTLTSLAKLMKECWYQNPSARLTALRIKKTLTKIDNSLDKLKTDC

| Structure (SMILES) | IC50 [nM] |
| --- | --- |
| COc1cc(-n2cnc(Nc3nc(N4[C@H](CO)C[C@H]5C[C@H]54)c4cccn4n3)c2)cc(OC)c1OC [Compound 325e, ((1R,3S,5R)-2-(2-((1-(3,4,5-trimethoxyphenyl)-1H-imidazol-4-yl)amino)pyrrolo[2,1-f][1,2,4]triazin-4-yl)-2-azabicyclo[3.1.0]hexan-3-yl)methanol] | < 100 |
| COc1cc(-n2cnc(Nc3nc(N4CCC[C@@H]4CO)c4ccccc4n3)c2)cc(OC)c1OC [Compound 327b, (R)-(1-(2-((1-(3,4,5-trimethoxyphenyl)-1H-imidazol-4-yl)amino)quinazolin-4-yl)pyrrolidin-2-yl)methanol] | < 100 |
| COc1cc(-n2cnc(Nc3nc(N4CCC[C@H]4CO)c4c(cnn4C)n3)c2)cc(OC)c1OC [Compound 328c, (S)-(1-(1-methyl-5-((1-(3,4,5-trimethoxyphenyl)-1H-imidazol-4-yl)amino)-1H-pyrazolo[4,3-d]pyrimidin-7-yl)pyrrolidin-2-yl)methanol] | < 100 |
| COc1cc(-n2cnc(Nc3nc(N4CCC[C@H]4CO)nc4[nH]ncc34)c2)cc(OC)c1OC [Compound 329a, (S)-(1-(4-((1-(3,4,5-trimethoxyphenyl)-1H-imidazol-4-yl)amino)-1H-pyrazolo[3,4-d]pyrimidin-6-yl)pyrrolidin-2-yl)methanol] | < 100 |
| COc1cc(-n2cnc(Nc3nc(N4CCC[C@H]4CO)c4cccc(CN5CCCCC5)c4n3)c2)cc(OC)c1OC [Compound 335d, (S)-(1-(8-(piperidin-1-ylmethyl)-2-((1-(3,4,5-trimethoxyphenyl)-1H-imidazol-4-yl)amino)quinazolin-4-yl)pyrrolidin-2-yl)methanol] | < 100 |
| COc1cc(-n2cnc(Nc3nc(N4CCC[C@H]4CO)nc4c3cnn4C)c2)cc(OC)c1OC [Compound 336c, (S)-(1-(1-methyl-4-((1-(3,4,5-trimethoxyphenyl)-1H-imidazol-4-yl)amino)-1H-pyrazolo[3,4-d]pyrimidin-6-yl)pyrrolidin-2-yl)methanol] | < 100 |
| COc1cc(-n2cnc(Nc3nc(N4CCC[C@H]4CO)c4cnn(C)c4n3)c2)cc(OC)c1OC [Compound 338b, (S)-(1-(1-methyl-6-((1-(3,4,5-trimethoxyphenyl)-1H-imidazol-4-yl)amino)-1H-pyrazolo[3,4-d]pyrimidin-4-yl)pyrrolidin-2-yl)methanol] | < 100 |
| OC[C@@H]1CCCN1c1nc(Nc2cn(-c3ccc4c(c3)OC(F)(F)O4)cn2)c2occc2n1 [Compound 339e, (S)-(1-(4-(1-(2,2-difluorobenzo[d][1,3]dioxol-5-yl)-1H-imidazol-4-ylamino)furo[3,2-d]pyrimidin-2-yl)pyrrolidin-2-yl)methanol] | 100 to 1000 |
| COc1cc(-n2cnc(Nc3nc(N4CCC[C@H]4CO)nc4cccc(F)c34)c2)cc(OC)c1OC [Compound 341a, (S)-(1-(5-fluoro-4-((1-(3,4,5-trimethoxyphenyl)-1H-imidazol-4-yl)amino)quinazolin-2-yl)pyrrolidin-2-yl)methanol] | < 100 |
| COc1cc(-n2cnc(Nc3nc4c(c(N5CCC[C@H]5CO)n3)COCC4)c2)cc(OC)c1OC [Compound 343b, (S)-(1-(2-((1-(3,4,5-trimethoxyphenyl)-1H-imidazol-4-yl)amino)-7,8-dihydro-5H-pyrano[4,3-d]pyrimidin-4-yl)pyrrolidin-2-yl)methanol] | < 100 |
| COc1cc(-n2cnc(Nc3nc(N4CCC[C@H]4CO)nc4cc(Br)ccc34)c2)cc(OC)c1OC [Compound 344c, (S)-(1-(7-bromo-4-((1-(3,4,5-trimethoxyphenyl)-1H-imidazol-4-yl)amino)quinazolin-2-yl)pyrrolidin-2-yl)methanol] | < 100 |
| COc1cc(-n2cnc(Nc3cc4ccccc4c(N4CCC[C@H]4CO)n3)c2)cc(OC)c1OC [Compound 346c, (S)-(1-(3-((1-(3,4,5-trimethoxyphenyl)-1H-imidazol-4-yl)amino)isoquinolin-1-yl)pyrrolidin-2-yl)methanol] | 100 to 1000 |
| COc1cc(-n2cnc(Nc3nc(N4CCC[C@H]4CO)nc4cc(C#N)ccc34)c2)cc(OC)c1OC [Compound 347a, (S)-2-(2-(hydroxymethyl)pyrrolidin-1-yl)-4-((1-(3,4,5-trimethoxyphenyl)-1H-imidazol-4-yl)amino)quinazoline-7-carbonitrile] | < 100 |

The remaining lines, values ahead:

| IC50 [nM] | Structure (SMILES) |
| --- | --- |
| < 100 | COc1cncc(-n2cnc(Nc3nc(N4CCC[C@H]4CO)nn4cccc34)c2)c1 [Compound 321b, (S)-(1-(4-((1-(5-methoxypyridin-3-yl)-1H-imidazol-4-yl)amino)pyrrolo[2,1-f][1,2,4]triazin-2-yl)pyrrolidin-2-yl)methanol] |
| < 100 | COc1cc(Cl)cc(-n2cnc(Nc3nc(N4CCC[C@H]4CO)nn4cccc34)c2)c1 [Compound 322b, (S)-(1-(4-((1-(3-chloro-5-methoxyphenyl)-1H-imidazol-4-yl)amino)pyrrolo[2,1-f][1,2,4]triazin-2-yl)pyrrolidin-2-yl)methanol] |
| 100 to 1000 | COc1cc(-n2cnc(Nc3nc(N4C[C@@H]5C[C@@H]5[C@@H]4CO)c4cccn4n3)c2)cc(OC)c1OC [Compound 324b, ((1S,2R,5R)-3-(2-((1-(3,4,5-trimethoxyphenyl)-1H-imidazol-4-yl)amino)pyrrolo[2,1-f][1,2,4]triazin-4-yl)-3-azabicyclo[3.1.0]hexan-2-yl)methanol] |
| < 100 | COc1cc(-n2cnc(Nc3nc(N4CCC[C@H]4CO)nc4c3cnn4C3CCCCO3)c2)cc(OC)c1OC (stereo partly drawn) [Compound 326c, ((2S)-1-(1-(tetrahydro-2H-pyran-2-yl)-4-((1-(3,4,5-trimethoxyphenyl)-1H-imidazol-4-yl)amino)-1H-pyrazolo[3,4-d]pyrimidin-6-yl)pyrrolidin-2-yl)methanol] |
| < 100 | OC[C@@H]1CCCN1c1nc(Nc2cn(-c3cccc(OC(F)(F)F)c3)cn2)c2cccn2n1 [Compound 330b, (S)-(1-(4-((1-(3-(trifluoromethoxy)phenyl)-1H-imidazol-4-yl)amino)pyrrolo[2,1-f][1,2,4]triazin-2-yl)pyrrolidin-2-yl)methanol] |
| < 100 | Cc1cc(OC(F)(F)F)cc(-n2cnc(Nc3nc(N4CCC[C@H]4CO)nn4cccc34)c2)c1 [Compound 331b, (S)-(1-(4-((1-(3-methyl-5-(trifluoromethoxy)phenyl)-1H-imidazol-4-yl)amino)pyrrolo[2,1-f][1,2,4]triazin-2-yl)pyrrolidin-2-yl)methanol] |
| < 100 | COc1cc(-n2cnc(Nc3nc(N4C[C@@H]5C[C@@H]5[C@H]4CO)c4cccn4n3)c2)cc(OC)c1OC [Compound 332b, ((1S,2S,5R)-3-(2-((1-(3,4,5-trimethoxyphenyl)-1H-imidazol-4-yl)amino)pyrrolo[2,1-f][1,2,4]triazin-4-yl)-3-azabicyclo[3.1.0]hexan-2-yl)methanol] |
| < 100 | COc1cc(-n2cnc(Nc3nc(N4CC[C@H](CO)C4)c4cccn4n3)c2)cc(OC)c1OC [Compound 333b, (S)-(1-(2-((1-(3,4,5-trimethoxyphenyl)-1H-imidazol-4-yl)amino)pyrrolo[2,1-f][1,2,4]triazin-4-yl)pyrrolidin-3-yl)methanol] |
| < 100 | COc1cc(-n2cnc(Nc3nc(N4CCN(C)CC4)nn4cccc34)c2)cc(OC)c1OC [Compound 334a, 2-(4-methylpiperazin-1-yl)-N-(1-(3,4,5-trimethoxyphenyl)-1H-imidazol-4-yl)pyrrolo[2,1-f][1,2,4]triazin-4-amine] |
| < 100 | COc1cc(-n2cnc(Nc3nc(N4CCC[C@H]4C(N)=O)nc4c3cnn4C)c2)cc(OC)c1OC [Compound 337a, (S)-1-(1-methyl-4-((1-(3,4,5-trimethoxyphenyl)-1H-imidazol-4-yl)amino)-1H-pyrazolo[3,4-d]pyrimidin-6-yl)pyrrolidine-2-carboxamide] |
| 100 to 1000 | COc1cc(-n2cnc(Nc3nc(N4CCC[C@H]4C(N)=O)nc4cccc(F)c34)c2)cc(OC)c1OC [Compound 340c, (S)-1-(5-fluoro-4-((1-(3,4,5-trimethoxyphenyl)-1H-imidazol-4-yl)amino)quinazolin-2-yl)pyrrolidine-2-carboxamide] |
| < 100 | COc1cc(-n2cnc(Nc3nc(N4CCC[C@H]4CO)nc4c3COCC4)c2)cc(OC)c1OC [Compound 342c, (S)-(1-(4-((1-(3,4,5-trimethoxyphenyl)-1H-imidazol-4-yl)amino)-7,8-dihydro-5H-pyrano[4,3-d]pyrimidin-2-yl)pyrrolidin-2-yl)methanol] |
| < 100 | COc1cc(-n2cnc(Nc3nc(N4CCC[C@H]4C(N)=O)nc4cc(C#N)ccc34)c2)cc(OC)c1OC [Compound 345c, (S)-1-(7-cyano-4-((1-(3,4,5-trimethoxyphenyl)-1H-imidazol-4-yl)amino)quinazolin-2-yl)pyrrolidine-2-carboxamide] |
| < 100 | COc1cc(-n2cnc(Nc3nc(N4CCC[C@@H]4CO)nn4c(CN5CCCCC5)ccc34)c2)cc(OC)c1OC [Compound 348a, (R)-(1-(7-(piperidin-1-ylmethyl)-4-((1-(3,4,5-trimethoxyphenyl)-1H-imidazol-4-yl)amino)pyrrolo[2,1-f][1,2,4]triazin-2-yl)pyrrolidin-2-yl)methanol] |
| < 100 | COc1cc(-n2cnc(Nc3nc(N4CCC[C@@H]4C(N)=O)nn4c(CN5CCCCC5)ccc34)c2)cc(OC)c1OC [Compound 349a, (R)-1-(7-(piperidin-1-ylmethyl)-4-((1-(3,4,5-trimethoxyphenyl)-1H-imidazol-4-yl)amino)pyrrolo[2,1-f][1,2,4]triazin-2-yl)pyrrolidine-2-carboxamide] |
| < 100 | COC(=O)c1cc(-n2cnc(Nc3nc(N4CCC[C@H]4C(N)=O)nn4cccc34)c2)cc(OC)c1OC [Compound 350d, (S)-methyl 5-(4-((2-(2-carbamoylpyrrolidin-1-yl)pyrrolo[2,1-f][1,2,4]triazin-4-yl)amino)-1H-imidazol-1-yl)-2,3-dimethoxybenzoate] |
| > 1000 | COc1cc(-n2cnc(Nc3nc(N4CCC[C@H]4C(N)=O)nn4cccc34)c2)cc(C(=O)NC2CCCC2)c1O [Compound 351d, (S)-1-(4-((1-(3-(cyclopentylcarbamoyl)-4-hydroxy-5-methoxyphenyl)-1H-imidazol-4-yl)amino)pyrrolo[2,1-f][1,2,4]triazin-2-yl)pyrrolidine-2-carboxamide] |

— patent US11661426B2, “Imidazole-containing inhibitors of ALK2 kinase” (BioCryst Pharmaceuticals, Inc., priority 2017, dated 2023)
